Results as given in paper PMC13210772, “Dual FLT3/MAPK14 Proteolysis-Targeting Chimera (PROTAC) Induces Potent Acute Myeloid Leukemia Cell Death” (Pharmaceuticals, 2026).

What was measured:
in vitro = conditions: CD-1, mouse, liver microsomes, pH 7.4
[1] = Metabolic stability in liver microsomes
[2] = Non-enzymatic stability under cellular assay conditions (HPLC); assay type: physicochemical; conditions: compound remaining, assay medium DMEM, 37 °C
Experimental: An important aspect in the development of PROTACs is testing chemical stability. On the one hand, we tested all PROTACs produced for their stability under cellular assay conditions. For this purpose, 10 µM solutions of the PROTACs and reference inhibitor were incubated for 72 h at 37 °C with the assay medium DMEM. The remaining amount of the compounds was determined by HPLC after 6, 12, 24, 48 and 72 h. The results of the stability studies are shown in Table S2 (Supplementary Information).
The developed compounds were diluted in the assay media consisting of a mixture of DMEM (50%), DMSO (10%) and acetonitrile (40%) at pH 7.4 and incubated at 37 °C for 72 h. The quantity of the compounds was measured after 6, 12, 24, 48, and 72 h by HPLC using an XTerra RP18 column ([…], 3.9 mm × 100 mm) from the manufacturer Waters (Milford, MA, USA) and two LC-10AD pumps, an SPD-M10AVP PDA detector, and an SIL-HT autosampler, all from the manufacturer Shimadzu (Kyoto, Japan).

FLT3-ITD [3] = target: T1, FLT3-ITD (Homo sapiens, UniProt P36888, INS600HVDFREYEYD); assay: FLT3-ITD degradation, immunoblot in MV4-11 cells; conditions: for inhibition at 0.05 µM: MV4-11, 24 h, read-out: % FLT3-ITD Degradation at 50 nM
T1 sequence (P36888 with tags, fused parts or gaps INS600HVDFREYEYD): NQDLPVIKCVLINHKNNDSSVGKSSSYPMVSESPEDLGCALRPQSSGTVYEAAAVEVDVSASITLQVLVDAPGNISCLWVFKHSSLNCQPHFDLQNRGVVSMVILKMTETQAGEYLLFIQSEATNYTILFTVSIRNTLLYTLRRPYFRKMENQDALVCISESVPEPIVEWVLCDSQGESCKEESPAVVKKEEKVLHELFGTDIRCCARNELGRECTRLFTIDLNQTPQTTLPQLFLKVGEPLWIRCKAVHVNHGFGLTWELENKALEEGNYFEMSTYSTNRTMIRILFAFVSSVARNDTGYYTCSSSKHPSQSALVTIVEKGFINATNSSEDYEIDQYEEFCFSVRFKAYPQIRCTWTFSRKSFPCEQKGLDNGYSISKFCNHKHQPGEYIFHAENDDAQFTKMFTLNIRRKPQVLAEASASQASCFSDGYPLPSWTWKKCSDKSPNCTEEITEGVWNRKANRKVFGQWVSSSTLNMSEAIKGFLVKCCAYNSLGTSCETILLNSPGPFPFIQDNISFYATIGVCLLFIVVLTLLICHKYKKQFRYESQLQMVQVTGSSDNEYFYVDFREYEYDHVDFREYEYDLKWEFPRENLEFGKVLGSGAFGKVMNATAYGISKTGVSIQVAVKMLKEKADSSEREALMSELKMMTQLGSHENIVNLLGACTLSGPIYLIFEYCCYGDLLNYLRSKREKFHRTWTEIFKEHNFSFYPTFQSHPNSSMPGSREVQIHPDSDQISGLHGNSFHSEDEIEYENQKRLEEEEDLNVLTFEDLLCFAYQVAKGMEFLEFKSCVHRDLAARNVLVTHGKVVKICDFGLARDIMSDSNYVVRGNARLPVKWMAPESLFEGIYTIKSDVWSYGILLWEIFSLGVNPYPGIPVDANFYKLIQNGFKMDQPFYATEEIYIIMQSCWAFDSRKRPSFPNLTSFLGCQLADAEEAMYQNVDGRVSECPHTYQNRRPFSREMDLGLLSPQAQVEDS

FLT3-ITD [4] = assay: KINOMEscan binding assay
Experimental: Binding to FLT3-ITD was determined using the KINOMEscan^TM assay (Eurofins DiscoverX Corporation, San Diego, CA, USA)
Kinase-tagged T7 phage strains were prepared in an E. coli host derived from the BL21 strain. E. coli were grown to log-phase and infected with T7 phage and incubated with shaking at 32 °C until lysis. The lysates were centrifuged and filtered to remove cell debris. The remaining kinases were produced in HEK-293 cells and subsequently tagged with DNA for qPCR detection. […] The liganded beads were blocked with excess biotin and washed with blocking buffer (SeaBlock (Pierce), 1% BSA, 0.05% Tween 20, 1 mM DTT) to remove unbound ligand and to reduce non-specific binding. […] The compounds were then diluted directly into the assays such that the final concentration of DMSO was 0.9%. All reactions performed in polypropylene 384-well plate. Each was a final volume of 0.02 mL. […] The kinase concentration in the eluates was measured by qPCR.

SMILES	0 h - % [2] [%]	6 h- % [2] [%]	12 h- % [2] [%]	24 h- % [2] [%]	48 h- % [2] [%]	72 h- % [2] [%]	inhibition at 0.05 µM (FLT3-ITD [3]) [%]	% FLT3-ITD Binding at 1 µM (FLT3-ITD [4]) [%]	further results
O=C(O)Cc1ccccc1Nc1c(Cl)cccc1Cl [Diclofenac, Diclofenac sodium, reference compound]	–	–	–	–	–	–	–	–	remaining at 10 min, 25 µM (in vitro): 94.7 ± 1.7%; remaining at 0.5 h, 25 µM (in vitro): 78%; remaining at 1 h, 25 µM (in vitro): 73%; remaining at 2 h, 25 µM (in vitro): 59%; 0 min—Compound Remaining % ([1]; mouse (CD-1) liver microsomes, 25 μM, 0 min): 100%; 30 min—Compound Remaining % ([1]; mouse (CD-1) liver microsomes, 25 μM, 30 min): 79.0 ± 1.3%; 120 min—Compound Remaining % ([1]; mouse (CD-1) liver microsomes, 25 μM, 120 min): 60.8 ± 2.2%; 0 min - compound remaining % ([1]; single runs A and B (Table S3), 0 min): 100%; 10 min - compound remaining % ([1]; single runs A and B (Table S3), 10 min): 96%; 30 min - compound remaining % ([1]; single runs A and B (Table S3), 30 min, listed as Diclofenac_A): 80%
Cc1ncsc1-c1ccc([C@H](C)NC(=O)[C@@H]2C[C@@H](O)CN2C(=O)[C@@H](NC(=O)CCCCCCCNC(=O)c2cc(Oc3ccc(NC(=O)Nc4cccc(C(F)(F)F)c4)cc3)ccn2)C(C)(C)C)cc1 [MA42, N-(8-(((S)-1-((2S,4R)-4-Hydroxy-2-(((S)-1-(4-(4-methylthiazol-5-yl)phenyl)ethyl)carbamoyl)-pyrrolidin-1-yl)-3,3-dimethyl-1-oxobutan-2-yl)amino)-8-oxooctyl)-4-(4-(3-(3-(trifluoromethyl)phenyl)ureido)phenoxy)picolinamide]	100	99.7	100.0	100.2	100.8	101.0	30	–	FLT3-ITD degradation (FLT3-ITD [3]; MV4-11 cells, 50 nM, 24 h): no significant degradation
Cc1ncsc1-c1ccc([C@H](C)NC(=O)[C@@H]2C[C@@H](O)CN2C(=O)[C@@H](NC(=O)CCCCCNC(=O)c2cc(Oc3ccc(NC(=O)Nc4cccc(C(F)(F)F)c4)cc3)ccn2)C(C)(C)C)cc1 [MA43, N-(6-(((S)-1-((2S,4R)-4-Hydroxy-2-(((S)-1-(4-(4-methylthiazol-5-yl)phenyl)ethyl)carbamoyl)-pyrrolidin-1-yl)-3,3-dimethyl-1-oxobutan-2-yl)amino)-6-oxohexyl)-4-(4-(3-(3-(trifluoromethyl)phenyl)ureido)phenoxy)picolinamide]	100	100.1	100.3	100.5	101.0	101.2	20	–	FLT3-ITD degradation (FLT3-ITD [3]; MV4-11 cells, 50 nM, 24 h): no significant degradation
Cc1ncsc1-c1ccc([C@H](C)NC(=O)[C@H]2C[C@H](O)CN2C(=O)[C@@H](NC(=O)[C@H]2CC[C@H](C(=O)N3CCC(CCNC(=O)c4cc(Oc5ccc(NC(=O)Nc6cc(C(C)(C)C)on6)cc5)ccn4)CC3)CC2)C(C)(C)C)cc1 [MA224, 4-(4-(3-(5-(tert-Butyl)isoxazol-3-yl)ureido)phenoxy)-N-(2-(1-(trans-4-(((S)-1-((2R,4S)-4-hydroxy-2-(((S)-1-(4-(4-methylthiazol-5-yl)phenyl)ethyl)carbamoyl)pyrrolidin-1-yl)-3,3-dimethyl-1-oxobutan-2-yl)carbamoyl)cyclohexanecarbonyl)piperidin-4-yl)ethyl)picolinamide]	–	–	–	–	–	–	–	–	% FLT3-ITD Degradation at 50 nM (FLT3-ITD [3]; MV4-11 cells, 50 nM, 24 h): No effect
NS(=O)(=O)OC[C@@H]1C[C@@H](n2ccc3c(N[C@H]4CCc5ccccc54)ncnc32)C[C@@H]1O [MLN4924, reference compound]	–	–	–	–	–	–	–	–	rescue of MA191-mediated degradation (FLT3-ITD [3]; 50 nM MA191 ± 3 µM MLN4924, 6 h, MV4-11 and MOLM-13 cells): prevented the MA191-mediated degradation of FLT3-ITD as well as MAPK14

Now from value to molecule, other results behind:

0 h - % [2] [%]	6 h- % [2] [%]	12 h- % [2] [%]	24 h- % [2] [%]	48 h- % [2] [%]	72 h- % [2] [%]	inhibition at 0.05 µM (FLT3-ITD [3]) [%]	% FLT3-ITD Binding at 1 µM (FLT3-ITD [4]) [%]	SMILES	further results
100	101.2	101.3	102.2	103.3	106.1	80	84 ± 1	Cc1ncsc1-c1ccc([C@H](C)NC(=O)[C@@H]2C[C@@H](O)CN2C(=O)[C@@H](NC(=O)CCCCCCCNC(=O)c2cc(Oc3ccc(NC(=O)Nc4cc(C(C)(C)C)on4)cc3)ccn2)C(C)(C)C)cc1 [MA73, 4-(4-(3-(5-(tert-Butyl)isoxazol-3-yl)ureido)phenoxy)-N-(8-(((S)-1-((2S,4R)-4-hydroxy-2-(((S)-1-(4-(4-methylthiazol-5-yl)phenyl)ethyl)carbamoyl)pyrrolidin-1-yl)-3,3-dimethyl-1-oxobutan-2-yl)amino)-8-oxooctyl)picolinamide]	–
100	101.4	101.4	101.8	102.6	103.1	90	89 ± 2	Cc1ncsc1-c1ccc([C@H](C)NC(=O)[C@@H]2C[C@@H](O)CN2C(=O)[C@@H](NC(=O)CCOCCOCCNC(=O)c2cc(Oc3ccc(NC(=O)Nc4cc(C(C)(C)C)on4)cc3)ccn2)C(C)(C)C)cc1 [MA74, 4-(4-(3-(5-(tert-Butyl)isoxazol-3-yl)ureido)phenoxy)-N-(2-(2-(3-(((S)-1-((2S,4R)-4-hydroxy-2-(((S)-1-(4-(4-methylthiazol-5-yl)phenyl)ethyl)carbamoyl)pyrrolidin-1-yl)-3,3-dimethyl-1-oxobutan-2-yl)amino)-3-oxopropoxy)ethoxy)ethyl)picolinamide]	–
100	99.6	99.6	99.9	100.5	100.7	80	89 ± 2	Cc1ncsc1-c1ccc([C@H](C)NC(=O)[C@@H]2C[C@@H](O)CN2C(=O)[C@@H](NC(=O)CCCCCCNC(=O)c2cc(Oc3ccc(NC(=O)Nc4cc(C(C)(C)C)on4)cc3)ccn2)C(C)(C)C)cc1 [MA77, 4-(4-(3-(5-(tert-Butyl)isoxazol-3-yl)ureido)phenoxy)-N-(7-(((S)-1-((2S,4R)-4-hydroxy-2-(((S)-1-(4-(4-methylthiazol-5-yl)phenyl)ethyl)carbamoyl)pyrrolidin-1-yl)-3,3-dimethyl-1-oxobutan-2-yl)amino)-7-oxoheptyl)picolinamide]	–
100	99.5	99.5	99.9	100.6	101.0	80	89 ± 2	Cc1ncsc1-c1ccc([C@H](C)NC(=O)[C@@H]2C[C@@H](O)CN2C(=O)[C@@H](NC(=O)CCCCCNC(=O)c2cc(Oc3ccc(NC(=O)Nc4cc(C(C)(C)C)on4)cc3)ccn2)C(C)(C)C)cc1 [MA78, 4-(4-(3-(5-(tert-Butyl)isoxazol-3-yl)ureido)phenoxy)-N-(6-(((S)-1-((2S,4R)-4-hydroxy-2-(((S)-1-(4-(4-methylthiazol-5-yl)phenyl)ethyl)carbamoyl)pyrrolidin-1-yl)-3,3-dimethyl-1-oxobutan-2-yl)amino)-6-oxohexyl)picolinamide]	–
